How the values were obtained:
5‐LO = target: T1, 5‐LO (Homo sapiens, UniProt P09917); assay: Ex vivo whole blood stimulation with opsonized zymosan, 5‐LO products; assay type: cell-based; set-up: endogenous in cells; host or cells: human polymorphonuclear leukocytes isolated from heparinized blood; details: 5‐LO product biosynthesis in whole blood, mean (95% confidence interval)
T1 sequence (P09917 1-674): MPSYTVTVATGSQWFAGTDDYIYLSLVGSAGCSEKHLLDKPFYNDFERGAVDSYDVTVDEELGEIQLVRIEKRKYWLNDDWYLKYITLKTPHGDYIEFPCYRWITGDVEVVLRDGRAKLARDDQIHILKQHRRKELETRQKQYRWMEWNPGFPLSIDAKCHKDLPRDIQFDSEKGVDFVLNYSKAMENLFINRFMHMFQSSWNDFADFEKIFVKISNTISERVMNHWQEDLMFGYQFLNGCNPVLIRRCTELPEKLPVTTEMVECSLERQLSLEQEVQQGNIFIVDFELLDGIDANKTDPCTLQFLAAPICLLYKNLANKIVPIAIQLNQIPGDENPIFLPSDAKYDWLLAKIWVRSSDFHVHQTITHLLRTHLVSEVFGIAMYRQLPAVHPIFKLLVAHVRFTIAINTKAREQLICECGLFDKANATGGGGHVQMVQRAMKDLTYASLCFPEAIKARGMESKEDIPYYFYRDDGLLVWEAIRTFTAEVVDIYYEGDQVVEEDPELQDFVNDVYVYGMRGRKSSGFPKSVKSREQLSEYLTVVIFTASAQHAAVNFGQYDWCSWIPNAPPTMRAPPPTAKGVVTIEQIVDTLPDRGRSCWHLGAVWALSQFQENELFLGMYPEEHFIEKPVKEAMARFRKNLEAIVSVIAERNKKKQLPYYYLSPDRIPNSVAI
Method: Blood was collected in tubes containing heparin as anticoagulant. Test compounds or their diluent control (DMSO, 0.1%) were added to 1 mL of heparinized blood at the indicated concentrations and incubated for 5 minutes in a water bath at 37°C. Stimulation was initiated with the addition of 125 μL of 40 mg/mL of opsonized zymosan, samples were then gently vortexed and incubated at 37°C for 30 minutes.34 Samples were then centrifuged at 960g for 10 minutes at 4°C, plasma was removed and added to tubes containing 4 volumes of CH3OH:CH3CN (1:1) containing 100 ng/mL of PGB2 as internal standard. Samples were stored overnight at −20°C, and then centrifuged at 3300g for 10 minutes. Samples were then purified on C18 cartridges, were eluted with CH3OH, dried under nitrogen, resuspended in 46% of CH3OH:CH3CN (1:1), and analyzed using RP‐HPLC as described above.

HepaRG cells = assay: Metabolite identification by LC‐MS/MS in HepaRG cell culture; assay type: in vitro ADME, human; details: 50 µmol/L, 7.5 and 60 minutes
Method: Differentiated HepaRG cells, plated in 24 well plates, were washed with hepatocyte suspension medium (Williams E‐medium without phenol red, supplemented with 2 mmol/L Glutamax and […] HEPES) before addition of hepatocyte suspension medium (250 µL/well) containing (30 or 50 µmol/L) of the test compounds or their diluent. Cells were then incubated for 7.5, 15, 30, 60 or 90 minutes at 37°C after which the medium was removed.
In other experiments, LC‐MS/MS analysis was performed to identify metabolites of test compounds that had been incubated with HepaRG cells. First, fifty micromolar standards of the test compounds were diluted 3000‐fold and analyzed using electrospray ionization mass spectrometry on a linear quadrupole ion trap (LTQ‐XL) from Thermo‐Fisher Scientific (San Jose). Full scan spectra were collected using both ionization polarities for confirmation of the intact molecular weight of each compounds based on the expected [M + H]^+ and [M−H]^− pseudo‐molecular ions observed using mass spectrometry. The diluted standards were then subjected to reversed‐phase partition chromatography on an Altima C18 column produced by HiChrom and distributed by VWR (Mississsauga, ON). The LC system was a Dionex Ultimate 3000. The mass spectrometer electrospray source was used at 40 µL/min with a nitrogen sheath gas of 15, a spray voltage of ±4 kV, a capillary voltage of ±35 V, a tube lens of ±175 V and a capillary temperature of 160°C. Samples that had been collected from HepaRG cultures were purified on C18 cartridges and eluted with CH3OH. For the first injection of extracted samples, the MS method consisted of a repeated loop of full scan (m/z 100‐800), product ion scan based on the intact mass determined from infusion of the standards and one product ion scan. […]
Figure 7 Metabolite identification using negative ion LC‐MS/MS in HepaRG cell culture. […] Right panels show the MS and MS/MS of the generated metabolites detected at 60 minutes. […]

IC50 (5‐LO) [µM] | Metabolites formed in HepaRG cell culture (HepaRG cells) | SMILES
3.58 | – | O=C(/C=C/c1ccc(O)c(O)c1)OCCc1ccccc1 [CAPE (2), caffeic acid phenethyl ester, reference compound]
1.2 | α,β‐unsaturated ketone reduction | COc1cc(/C=C/C(=O)CCc2ccccc2)cc(OC)c1O [compound 10, sinapic acid phenethyl ketone]
2.3 | α,β‐unsaturated ketone reduction | O=C(/C=C/c1ccc(O)c(O)c1)CCCc1ccccc1 [compound 7]
1.15 | α,β‐unsaturated ketone reduction | O=C(/C=C/c1cc(O)ccc1O)CCc1ccccc1 [compound 8]
1 | – | O=C(/C=C/c1cc(O)ccc1O)OCCc1ccccc1 [compound 5]

Reference: PMC6743424, “Phenolic acid phenethylesters and their corresponding ketones: Inhibition of 5‐lipoxygenase and stability in human blood and HepaRG cells” (Pharmacology Research & Perspectives, 2019)
